In data set [1] the test system is A549 human lung cancer cells. In words: Gene expression profiling on Affymetrix U133A microarrays, plateau phase A549 cultures. The format is cell-based. Particulars: 50 μM MGd. The method, then:
Methods: A549 human lung cancer cells (6.5×10^5 cells per T-162 flask in 45 mL complete RPMI 1640 medium) were seeded 10 days prior to treatment of non-cycling plateau phase cultures with MGd. At 4, 12, or 24 hours prior to RNA isolation, MGd (50 μM final concentration) or control (5% mannitol) solution was added to the cultures. Each time course experiment was performed in triplicate. After incubation, all cultures were washed once with PBS and total RNA was subjected to analysis on Affymetrix U133A microarrays, designed to interrogate the relative abundance of over 15,000 human genes.
We used Microarray Suite version 5.0 software (Affymetrix) to generate raw gene expression scores and normalized the relative hybridization signal from each experiment. All gene expression scores were set to a minimum value of one hundred in order to minimize noise associated with less robust measurements of rare transcripts. The permutation-based significance analysis of microarrays (SAM) was used to determine genes differentially expressed in response to MGd treatment compared to the control 5% mannitol-treated cultures (0.125% final) at each time point. We report all genes at least 2-fold differentially expressed with a less than a 1% False Discovery Rate (FDR) in response to MGd treatment (FIG. 10).

Data set [2] deals with metallothionein gene family members and ZnT1. In words: Northern blot analysis, Ramos cultures. The format is cell-based. The note with it: 6 hours. The method, then:
(§1) Methods: Northern Blot Analysis—Plateau phase cultures of A549 cells were prepared as described above, except that T-25 flasks were used, and the number of cells initially plated scaled accordingly. Cultures were treated with 50 μM MGd, 5 μM Gd(OAc)3 or 5% mannitol for 4 hours, whereupon cultures were washed twice with PBS and RNA harvested as above. Alternatively, 7-day plateau phase A549 or PC3 cultures were treated with 50 μM MGd, 50-100 μM Zn(OAc)2, 50 μM CdCl2 or 5% mannitol for 24 hours (A549) or 4 hours (PC3) prior to washing and RNA analysis. Exponential phase Ramos cultures were treated for 6 hours. Northern blots were conducted and analyzed. Radio labeled metallothionein probe, designed to bind to a 113-bp region of 3′-UTR sequences from multiple metallothionein gene family members, was generated using 5′-[…]-3′ (forward) and 5′-[…]-3′ (reverse) PCR primers and the NEBlot kit (New England Biolabs, Inc.). Radio labeled ZnT1 probe was generated in a similar fashion using 5′-[…]-3′ (forward) and 5′-[…]-3′ (reverse) primers.

For data set [3] the test system is unchanged. The experiment in a line: Northern blot analysis, A549 cultures. The format is cell-based, human. Particulars: for Metallothionein transcript levels: A549, 24 hours, 50 μM MGd, Zn(OAc)2 100 μM, CdCl2 50 μM, FIG. 2B. Here is the method:
as §1

Data set [4] shares this test system. The experiment in a line: Northern blot analysis, PC3 cultures. The format is cell-based. Particulars: PC3, 4 hours. The method, then: as §1
The subject of data set [5] is Ramos cells. In words: Gene expression profiling on Human Genome U133 Plus 2.0 Arrays, Ramos cultures. The format is cell-based. The note with it: 4 hours. The method, then:
Methods: Gene Expression Profiling—MGd (10 μM), Zn(OAc)2 (25 or 50 μM, the combinations, or control (5% mannitol) solution were added to Ramos cultures. Each treatment was performed in triplicate. After 4 hours of incubation, all cultures were washed twice with 0.5% BSA in HBSS and total RNA was isolated and subjected to analysis on Human Genome U133 Plus 2.0 Arrays (Affymetrix, Santa Clara, Calif.). Microarray Suite version 5.0 software (Affymetrix) was used to generate raw gene expression scores and normalize the relative hybridization signal from each experiment. All gene expression scores were set to a minimum value of fifty in order to minimize noise associated with less robust measurements of rare transcripts. Both the parametric Student's t-test and the permutation-based significance analysis of microarrays (SAM) were used to determine genes differentially expressed in treatment versus control groups.

Data set [6] relates to Ramos cells. In words: Mitochondrial membrane potential (JC-1), Ramos. The format is cell-based. The note with it: single agent alone. The method, then: Mitchondrial membrane potential. Loss of the mitochondrial membrane potential (ΔΨm) of cells was measured by the use of JC-1 (Molecular Probes, Inc., Eugene, Oreg.). Cells undergoing early apoptosis lose fluorescence in the 585 nm channel and gain it in the 530 nm channel. Briefly, cells cultured as described above were washed twice with complete medium, re-suspended in 0.5 mL JC-1 solution (10 μg/mL in complete medium), and incubated at 37° C. for 15 minutes. Cells were isolated by centrifugation, washed once and then re-suspended in 0.5 mL solution of 0.5% BSA in PBS and assayed immediately on the flow cytometer.

The test system of data set [7] is acute promyelocytic leukemia line (HL60). The note with it: 50 to 100 μM zinc. The method, then: Cellular Proliferation—The proliferation of exponential phase cultures was assessed by colorimetric assay. In brief, 2×10^5 suspension cells per well were seeded on 96-well V-bottom microtiter plates. Stock solutions of control vehicle, MGd or Zn(OAc)2 in medium were added and plates were incubated at 37° C. under a 5% CO2/95% air atmosphere. After 24 hours, medium was replaced with fresh medium. After 2 additional days, medium was exchanged with fresh medium (150 μL/well) supplemented with 3-(4,5-dimethylthiazol-2-yl)-2,5-diphenyltetrazolium bromide (MTT, 0.5 mg/mL, Sigma Biochemical, St. Louis, Mo.). Plates were incubated at 37° C. and viable cells measured.

Data set [8] has as its system PC3 prostate cancer cells. In words: Cell viability by propidium iodide exclusion, PC3. The format is cell-based.
Protocol: Methods: Cellular Viability—Cell viability was determined by using propidium iodide (PI) flow cytometric analysis. Cells from plateau phase cultures grown in T-25 flasks were harvested as described above, except that cells present in the growth medium and wash solution were isolated by centrifugation and included in the analysis. Cells were resuspended in 1 mL PBS, an aliquot of 3×10^5 cells transferred to a 4 mL tube, and the cells isolated by centrifugation. Cell pellets were resuspended in PBS supplemented with 2 μg/mL propidium iodide (Sigma), incubated for 5 minutes at ambient temperature, and subjected to flow cytometric analysis.
The next data set concerns Thioredoxin reductase. Particulars: plateau phase PC3 cultures. The method, then: Methods: Lipoate Reduction. Thioredoxin reductase activity was assessed by measuring the rate of lipoate reduction. In brief, A549 or PC3 cells (10,000 cells/well) were plated on 96-well plates and allowed to adhere overnight and grow two additional days until confluent. Cells were treated with MGd, zinc, or 5% mannitol for 2-4 hours, as indicated. Medium was removed, cells were washed with Hanks Balanced Salt Solution (HBSS), and a solution of 5 mM lipoic acid and 1 mM 5,5′-dithiobis(2-nitrobenzoic acid) in HBSS (100 μL/well) was added. Plates were incubated at ambient temperature in the dark. At chosen time intervals, plate absorbance was measured at 405-650 nm. Plate absorbances were normalized to wells containing neither exogenous zinc nor texaphyrin complex to allow plate-to-plate comparison. In some experiments, L-buthionine-[S,R]-sulfoximine (BSO, 100 μM) was added 24 hours prior to MGd or zinc treatment, to inhibit any contribution to lipoate reduction made by glutathione-dependent pathways (28). Actinomycin D (2.5 μg/mL) or cycloheximide (10 μg/mL), where present, was added 1 hour prior to texaphyrin or zinc treatment. Viability was checked on parallel plates using the tetrazolium dye 3-(4,5-dimethylthiazol-2-yl)-5-(3-carboxymethoxyphenyl)-2-(4-sulfophenyl)-2H-tetrazolium (MTS) following the manufacturers protocol (Promega Corp.).

Entries after “also recorded” stand apart in the source; their conditions may differ.

Protocol for A549 cells: Methods: Cellular Viability. Cell viability was determined by using propidium iodide (PI) flow cytometric analysis. Cells from plateau phase cultures grown in T-25 flasks were harvested as described above, except that cells present in the growth medium and wash solution were isolated by centrifugation and included in the analysis. Cells were resuspended in 1 mL PBS, an aliquot of 3×10^5 cells transferred to a 4 mL tube, and the cells isolated by centrifugation. Cell pellets were resuspended in PBS supplemented with 2 μg/mL propidium iodide (Sigma), incubated for 5 minutes at ambient temperature, and subjected to flow cytometric analysis. Flow cytometry was performed on a FACSCalibur instrument and data were analyzed using the CellQuest Pro software package (BD Biosciences).

As to `CC(=O)[O-].CC(=O)[O-].CCc1c(CC)c2cc3nc(cnc4cc(OCCOCCOCCOC)c(OCCOCCOCCOC)cc4ncc4nc(cc1[n-]2)C(CCCO)=C4C)C(C)=C3CCCO.O.[Gd+3]` [MGd, Motexafin gadolinium], the “hbc647 transcript (likely 3′-UTR of ZnT1)” value in data set [1] (all three time points) is reported as “up-regulated”. For the same compound, the “Metallothionein isoform transcripts (microarray)” value in data set [1] (all time points) was “up-regulation”. Besides, the “Expression of metallothionein family members and ZnT1” value in data set [2] and in data set [4] was “increased” each time. Moreover, the Metallothionein transcript levels result in [3] is reported as “raised; also recorded: significant increase”. The “Induction of metallothionein gene family members and ZnT1 (Northern blot)” value in data set [3] (A549 plateau phase, 4 hours, 50 μM MGd or 5 μM Gd(OAc)3) is “confirmed the induction; also recorded: induced”. For the same compound, the “MTF-1 regulated genes incl. metallothionein and zinc transporter family transcripts” value with Ramos cells [5] is given as “up-regulation of MTF-1 regulated genes”. Besides, the “Effect of MGd on the cytotoxicity of Zn(OAc)2” value in the data set with A549 cells was “potentiated”. Also, in the data set with Ramos cells [6], the JC-1 fluorescence entry is “No significant change”.
Turning to `CC(=O)[O-].CC(=O)[O-].[Zn+2]` [Zn(OAc)2, Zinc acetate], the Proliferation result in [7] is listed as “but not in an acute promyelocytic leukemia line (HL60)”. The Metallothionein transcript levels entry in data set [3] is given as “significant increase”; in data set [3] (listed as zinc) it was “raised”. The “Increased cell death (propidium iodide exclusion)” value in [8] (PC3, within 48 hr, at 100 μM zinc) amounted to 2 fold. Besides, in data set [8] (plateau phase PC3, after 24 hr), the Cell viability entry was “little effect on cell viability”. Also, in the data set with Ramos cells [6], the JC-1 fluorescence entry was “No significant change”. In addition, the Lipoate reduction result in the data set on Thioredoxin reductase is reported as “inhibited at lower concentrations of zinc”.

Source of the values: patent US20090197853A1, “METHODS AND COMPOSITIONS OF TREATING CANCER” (priority 2005, published 2009).
